# ChEMBL document CHEMBL1156188, “Synthesis and SAR of novel 4-morpholinopyrrolopyrimidine derivatives as potent phosphatidylinositol 3-kinase inhibitors” (J Med Chem, 2010)
# pIC50: −log10 of the molar value.
# Key:
# in vitro [1] = conditions: rat, liver microsomes
# Description: Half life in rat liver microsomes
# PC-3 = experiment: Cytotoxicity against human PC3 cells with PTEN mutant after 72 hrs; format: functional, cell-based; conditions: PC-3, 72 h
# [2] = Solubility at pH 7.4; format: physicochemical; conditions: buffer
# in vitro [3] = conditions: human, liver microsomes
# Description: Half life in human liver microsomes
# [4] = target: Phosphatidylinositol 4,5-bisphosphate 3-kinase catalytic subunit alpha isoform (Homo sapiens, UniProt P42336)
# Phosphatidylinositol 4,5-bisphosphate 3-kinase catalytic subunit alpha isoform, sequence (P42336 whole entry, canonical isoform): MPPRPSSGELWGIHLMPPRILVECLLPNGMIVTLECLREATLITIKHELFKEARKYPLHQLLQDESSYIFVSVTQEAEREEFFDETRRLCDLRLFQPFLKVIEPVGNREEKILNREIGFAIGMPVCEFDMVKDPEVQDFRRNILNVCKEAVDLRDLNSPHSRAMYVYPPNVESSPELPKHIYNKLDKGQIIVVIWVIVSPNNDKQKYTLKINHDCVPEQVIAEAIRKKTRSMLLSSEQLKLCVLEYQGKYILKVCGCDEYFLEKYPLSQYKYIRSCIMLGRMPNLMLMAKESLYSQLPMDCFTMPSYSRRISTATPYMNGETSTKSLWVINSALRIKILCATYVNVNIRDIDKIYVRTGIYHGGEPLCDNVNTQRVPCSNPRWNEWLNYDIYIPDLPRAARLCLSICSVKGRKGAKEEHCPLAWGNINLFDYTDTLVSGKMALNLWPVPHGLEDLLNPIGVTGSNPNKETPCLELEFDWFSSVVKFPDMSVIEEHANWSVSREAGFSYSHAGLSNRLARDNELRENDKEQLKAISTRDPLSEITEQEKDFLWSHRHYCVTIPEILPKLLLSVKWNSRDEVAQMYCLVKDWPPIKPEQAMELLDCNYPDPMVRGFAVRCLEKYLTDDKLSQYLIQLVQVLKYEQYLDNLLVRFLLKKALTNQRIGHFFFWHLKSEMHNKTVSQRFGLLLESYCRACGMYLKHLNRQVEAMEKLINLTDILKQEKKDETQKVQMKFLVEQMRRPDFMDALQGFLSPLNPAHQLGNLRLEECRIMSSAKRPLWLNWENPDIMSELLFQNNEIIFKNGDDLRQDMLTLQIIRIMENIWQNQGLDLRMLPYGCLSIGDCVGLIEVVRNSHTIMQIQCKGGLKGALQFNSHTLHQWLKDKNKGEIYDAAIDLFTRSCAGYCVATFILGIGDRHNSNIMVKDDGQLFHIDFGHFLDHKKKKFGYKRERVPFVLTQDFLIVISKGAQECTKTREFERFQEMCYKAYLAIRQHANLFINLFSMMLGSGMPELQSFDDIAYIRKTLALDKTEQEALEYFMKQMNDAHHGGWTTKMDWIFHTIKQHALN
# MDA-MB-361 = experiment: cells; conditions: Homo sapiens, MDA-MB-361, 72 h
# [5] = target: Serine/threonine-protein kinase mTOR (Homo sapiens, UniProt P42345); experiment: Inhibition of mTOR by DELFIA
# [6] = Drug level in human MDA-MB-361 cells xenografted nude mouse at 25 mg/kg, iv after 8 hrs; format: ADME, organism-based; set-up: dose 25 mg/kg, route intravenous; conditions: blood, read-out: Drug uptake
# [7] = Solubility at pH 3; format: physicochemical; conditions: buffer
# in vitro [8] = conditions: mouse, liver microsomes
# Description: Half life in mouse liver microsomes
structure (smiles),measurement,setting,value
CN(C)CCNCCn1ccc2c(N3CCOCC3)nc(-c3ccc(NC(=O)Nc4ccncc4)cc3)nc21,half-life,in vitro [1],8 min
same,pIC50,PC-3,5.94
same,solubility,[2],58 µg/mL
CCn1ccc2c(N3CCOCC3)nc(-c3ccc(NC(=O)Nc4ccc(C(=O)NCCN(C)C)cc4)cc3)nc21,half-life,in vitro [3],> 30 min
same,half-life,in vitro [1],> 30 min
same,pIC50,[4],8.74
same,pIC50,PC-3,7.58
same,pIC50,MDA-MB-361,8.26
same,solubility,[2],1 µg/mL
same,pIC50,[5],9.30
Oc1cccc(-c2nc(N3CCOCC3)c3cc[nH]c3n2)c1,pIC50,PC-3,6.24
same,solubility,[2],2 µg/mL
O=C(Nc1ccncc1)Nc1ccc(-c2nc(N3CCOCC3)c3ccn(CCN4CCNCC4)c3n2)cc1,half-life,in vitro [1],4 min
same,pIC50,PC-3,5.63
same,solubility,[2],> 100 µg/mL
CCNC(=O)Nc1ccc(-c2nc(N3CCOCC3)c3ccn(CCN(C)C)c3n2)cc1,half-life,in vitro [1],8 min
same,solubility,[2],> 100 µg/mL
Oc1cccc(-c2nc(N3CCOCC3)c3[nH]ccc3n2)c1,pIC50,PC-3,5.81
O=C(Nc1ccncc1)Nc1ccc(-c2nc(N3CCOCC3)c3ccn(CCO)c3n2)cc1,half-life,in vitro [1],22 min
same,pIC50,[4],8.30
same,pIC50,PC-3,7.04
same,solubility,[2],1 µg/mL
O=C(Nc1ccncc1)Nc1ccc(-c2nc(N3CCOCC3)c3cc[nH]c3n2)cc1,pIC50,PC-3,6.73
CN(C)CCn1ccc2c(N3CCOCC3)nc(-c3cccc(CO)c3)nc21,pIC50,PC-3,6.16
same,solubility,[2],> 100 µg/mL
O=C(Nc1ccncc1)Nc1ccc(-c2nc(N3CCOCC3)c3ccn(CC(F)(F)F)c3n2)cc1,half-life,in vitro [1],> 30 min
same,pIC50,PC-3,7.09
same,pIC50,MDA-MB-361,7.28
same,solubility,[2],1 µg/mL
O=C(Nc1ccncc1)Nc1ccc(-c2nc(N3CCOCC3)c3ccn(CCN4CCCC4)c3n2)cc1,half-life,in vitro [1],4 min
same,pIC50,PC-3,6.26
same,solubility,[2],28 µg/mL
OCc1cccc(-c2nc(N3CCOCC3)c3ncn(C4CCN(Cc5ccccc5)CC4)c3n2)c1,half-life,in vitro [1],2 min
COC(Cn1ccc2c(N3CCOCC3)nc(-c3ccc(NC(=O)Nc4ccncc4)cc3)nc21)OC,half-life,in vitro [1],4 min
same,pIC50,PC-3,7.14
same,solubility,[2],2 µg/mL
CNC(=O)Nc1ccc(-c2nc(N3CCOCC3)c3ccn(CCN(C)C)c3n2)cc1,half-life,in vitro [1],9 min
same,pIC50,PC-3,6.36
same,solubility,[2],> 100 µg/mL
CN(C)CCn1ccc2c(N3CCOCC3)nc(-c3ccc(NC(=O)Nc4ccc(F)cc4)cc3)nc21,pIC50,PC-3,6.72
same,pIC50,[5],8.10
CN(C)CCN(C)C(=O)c1ccc(NC(=O)Nc2ccc(-c3nc(N4CCOCC4)c4ccn(CC(F)(F)F)c4n3)cc2)cc1,half-life,in vitro [3],> 30 min
same,concentration at 8 h,[6],1730 ng/mL
same,solubility,[7],> 100 µg/mL
same,half-life,in vitro [8],> 30 min
same,half-life,in vitro [1],29 min
same,pIC50,PC-3,7.89
same,pIC50,MDA-MB-361,> 8.52
same,pIC50,[5],9.22
CN(C)CCn1ccc2c(N3CCOCC3)nc(-c3ccc(NC(=O)Nc4ccccn4)cc3)nc21,half-life,in vitro [1],5 min
same,pIC50,PC-3,6.05
same,solubility,[2],21 µg/mL
OCc1cccc(-c2nc(N3CCOCC3)c3cc[nH]c3n2)c1,pIC50,PC-3,5.92
same,solubility,[2],38 µg/mL
OCc1cccc(-c2nc(N3CCOCC3)c3[nH]ccc3n2)c1,pIC50,PC-3,5.68
CN(C)CCn1ccc2c(N3CCOCC3)nc(-c3ccc(NC(=O)Nc4ccncc4)cc3)nc21,half-life,in vitro [1],2 min
same,pIC50,[4],8.10
same,pIC50,PC-3,7.00
same,solubility,[2],52 µg/mL
CN(C)CCn1ccc2c(N3CCOCC3)nc(-c3cccc(O)c3)nc21,pIC50,PC-3,5.93
same,solubility,[2],> 100 µg/mL
O=CCn1ccc2c(N3CCOCC3)nc(-c3ccc(NC(=O)Nc4ccncc4)cc3)nc21,pIC50,PC-3,6.19
same,solubility,[2],2 µg/mL
OCc1cccc(-c2nc(N3CCOCC3)c3[nH]cc(CN4CCCC4)c3n2)c1,pIC50,PC-3,< 5.50
CN(C)C1CCN(C(=O)c2ccc(NC(=O)Nc3ccc(-c4nc(N5CCOCC5)c5ccn(CC(F)(F)F)c5n4)cc3)cc2)CC1,half-life,in vitro [1],> 30 min
same,pIC50,PC-3,7.35
same,pIC50,MDA-MB-361,7.96
same,solubility,[2],1 µg/mL
O=C(Nc1ccncc1)Nc1ccc(-c2nc(N3CCOCC3)c3ccn(CCN4CCCCC4)c3n2)cc1,half-life,in vitro [1],4 min
same,pIC50,PC-3,6.20
same,solubility,[2],47 µg/mL
CN(C)Cc1c[nH]c2c(N3CCOCC3)nc(-c3cccc(CO)c3)nc12,pIC50,PC-3,< 5.50
CN1CCN(CCn2ccc3c(N4CCOCC4)nc(-c4ccc(NC(=O)Nc5ccncc5)cc4)nc32)CC1,half-life,in vitro [1],4 min
same,pIC50,PC-3,6.02
same,solubility,[2],> 100 µg/mL
CN(C)CCNC(=O)c1ccc(NC(=O)Nc2ccc(-c3nc(N4CCOCC4)c4ccn(CC(F)(F)F)c4n3)cc2)cc1,half-life,in vitro [3],> 30 min
same,solubility,[7],68 µg/mL
same,half-life,in vitro [1],> 30 min
same,pIC50,[4],8.85
same,pIC50,PC-3,7.64
same,pIC50,MDA-MB-361,7.99
same,pIC50,[5],9.40
CCn1ccc2c(N3CCOCC3)nc(-c3ccc(NC(=O)Nc4ccc(C(=O)N5CCNCC5)cc4)cc3)nc21,half-life,in vitro [3],> 30 min
same,half-life,in vitro [1],> 30 min
same,pIC50,[4],9.10
same,pIC50,PC-3,7.57
same,pIC50,MDA-MB-361,8.35
same,solubility,[2],1 µg/mL
same,pIC50,[5],9.05
CN(C)CCn1ccc2c(N3CCOCC3)nc(-c3ccc(NC(=O)Nc4cccnc4)cc3)nc21,half-life,in vitro [1],9 min
same,pIC50,PC-3,6.86
same,solubility,[2],52 µg/mL
same,pIC50,[5],8.52
CN1CCN(C(=O)c2ccc(NC(=O)Nc3ccc(-c4nc(N5CCOCC5)c5ccn(CC(F)(F)F)c5n4)cc3)cc2)CC1,half-life,in vitro [3],> 30 min
same,concentration at 8 h,[6],1680 ng/mL
same,solubility,[7],> 100 µg/mL
same,half-life,in vitro [8],> 30 min
same,half-life,in vitro [1],27 min
same,pIC50,[4],8.62
same,pIC50,PC-3,7.77
same,pIC50,MDA-MB-361,8.17
same,pIC50,[5],8.77
CCn1ccc2c(N3CCOCC3)nc(-c3ccc(NC(=O)Nc4ccc(C(=O)N5CCN(C)CC5)cc4)cc3)nc21,half-life,in vitro [3],> 30 min
same,half-life,in vitro [1],15 min
same,pIC50,[4],8.57
same,pIC50,PC-3,7.77
same,pIC50,MDA-MB-361,8.35
same,pIC50,[5],8.85
Oc1cccc(-c2nc(N3CCOCC3)c3[nH]cc(C4CCN(Cc5ccc(F)cc5)CC4)c3n2)c1,pIC50,PC-3,5.78
